# pIC50: −log10 of the molar value.
# How the values were obtained:
# Human sEH [1] = molecular target: T1, Human sEH (Homo sapiens, UniProt P34913); assay: Fluorescent assay with CMNPC substrate (Example 2); format: biochemical
# T1 sequence (P34913 1-555): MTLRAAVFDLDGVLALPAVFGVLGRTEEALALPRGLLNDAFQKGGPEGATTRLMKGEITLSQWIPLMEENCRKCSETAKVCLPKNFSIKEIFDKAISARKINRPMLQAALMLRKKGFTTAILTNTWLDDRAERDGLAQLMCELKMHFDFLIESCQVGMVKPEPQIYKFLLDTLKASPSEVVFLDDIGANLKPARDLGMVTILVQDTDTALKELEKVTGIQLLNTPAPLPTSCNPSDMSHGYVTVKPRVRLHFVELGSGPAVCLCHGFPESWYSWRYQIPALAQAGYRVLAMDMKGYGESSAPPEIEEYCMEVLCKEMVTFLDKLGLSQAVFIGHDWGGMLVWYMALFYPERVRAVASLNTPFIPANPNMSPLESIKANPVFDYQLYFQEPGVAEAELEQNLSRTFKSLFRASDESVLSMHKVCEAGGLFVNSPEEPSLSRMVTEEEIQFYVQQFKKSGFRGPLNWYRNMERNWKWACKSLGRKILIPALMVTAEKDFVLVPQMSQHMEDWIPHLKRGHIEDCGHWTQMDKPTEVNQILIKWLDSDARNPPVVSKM
# Experimental: A fluorescent assay was employed for high throughput screening (HTS) of inhibitors of sEH. Cyano(2-methoxynaphthalen-6-yl)methyl trans-(3-phenyloxyran-2-yl)methyl carbonate (CMNPC) was used as the fluorescent substrate. Human sEH (1 nM) was incubated with a compound of Formula I for 5 min in pH 7.0 Bis-Tris/HCl buffer (25 mM) containing 0.1 mg/mL of BSA at 30° C. prior to substrate introduction ([S]=5 μM). […] IC50 values are the average of the three replicates with at least two datum points above and at least two below the IC50.
# [2] = In vitro human liver microsomal metabolic stability (Example 4); format: in vitro ADME; details: for CLint scaled / half-life: pooled human liver microsomes; for CLint scaled: apparent intrinsic clearance, human liver microsomes; for half-life: half life in human liver microsomes, averages of duplicate determination, read-out: hLM t1/2
# Experimental: The stability of sEH inhibitors in a human liver microsomal assay was determined as a predictor of in vivo oxidative metabolism. Microsomal stability was assessed in pooled human liver microsomes (Celsis, Edison, N.J.). All reactions were carried out for 90 min at 37° C. in an NADPH-generating system consisting of glucose 6-phosphate, glucose 6-phosphate dehydrogenase, and NADP^+ (Sigma, St. Louis, Mo.). Positive control incubations proceeded with 7-ethoxycoumarin as the substrate. Reactions were terminated by adding methanol. The mixtures were centrifuged and the supernatants were evaporated. The residues were reconstituted in mobile phase (85% ACN; 15% H2O) and subjected to LC/MS analysis.
# Human sEH [3] = molecular target: T1, Human sEH; assay: biochemical; details: Table 1
pIC50 (Human sEH [1]),Structure (SMILES),other results
7.26,Cc1ccc(S(=O)(=O)N2CCC(C(=O)Nc3ccc(O)cc3)CC2)c(C)c1 [Compound 7-19],–
7.89,COC(=O)c1ccc(NC(=O)C2CCN(S(=O)(=O)c3ccc(C)cc3C)CC2)cc1 [Compound 7-21],–
6.96,Cc1ccc(S(=O)(=O)N2CCC(C(=O)Nc3ccc(C(=O)O)cc3)CC2)c(C)c1 [Compound 7-22],–
7.54,Cc1ccc(S(=O)(=O)N2CCC(C(=O)Nc3ccc(N4CCCCC4)cc3)CC2)c(C)c1 [Compound 7-25],"in vitro metabolic stability in human liver microsomes, in words [2]: intermediate metabolic profiles"
6.99,Cc1ccc(S(=O)(=O)N2CCC(C(=O)Nc3ccc(N4CCCCC4)c(C(N)=O)c3)CC2)c(C)c1 [Compound 7-26],"in vitro metabolic stability in human liver microsomes, in words [2]: intermediate metabolic profiles"
7.39,Cc1ccc(S(=O)(=O)N2CCC(C(=O)Nc3ccc(N4CCOCC4)cc3)CC2)c(C)c1 [Compound 7-27],–
7.60,Cc1ccc(S(=O)(=O)N2CCC(C(=O)Nc3ccc(F)cc3)CC2)c(C)c1 [Compound 7-32],–
7.70,Cc1ccc(S(=O)(=O)N2CCC(C(=O)Nc3ccc(Cl)cc3)CC2)c(C)c1 [Compound 7-33],–
7.77,Cc1ccc(S(=O)(=O)N2CCC(C(=O)Nc3ccc(Br)cc3)CC2)c(C)c1 [Compound 7-34],–
8.17,Cc1ccc(S(=O)(=O)N2CCC(C(=O)Nc3ccc(Cl)c(Cl)c3)CC2)c(C)c1 [Compound 7-37],CLint scaled [2]: 50 mL/min/kg; half-life [2]: 25 min
7.64,Cc1ccc(S(=O)(=O)N2CCC(C(=O)Nc3ccc4cc(C(=O)O)ccc4c3)CC2)c(C)c1 [Compound 7-44],"in vitro metabolic stability in human liver microsomes, in words [2]: excellent in vitro metabolic stability; CLint scaled [2]: 5.6 mL/min/kg; half-life [2]: 220 min"
9.22,Cc1ccc(S(=O)(=O)N2CCC(C(=O)Nc3ccc4c(c3)OCO4)CC2)c(C)c1 [Compound 7-45],CLint scaled [2]: 35 mL/min/kg; half-life [2]: 36 min

# The next lines start with the molecule.
Structure (SMILES),pIC50 (Human sEH [1]),other results
Cc1ccc(S(=O)(=O)N2CCC(C(=O)N[C@@H]3C[C@H]3c3ccccc3)CC2)c(C)c1 [Compound 7-3],8.28,CLint scaled [2]: 90 mL/min/kg; half-life [2]: 14 min
Cc1ccc(S(=O)(=O)N2CCC(C(=O)NC3CCCCC3)CC2)c(C)c1 [Compound 7-6],–,CLint scaled [2]: 90 mL/min/kg; half-life [2]: 14 min
Cc1ccc(S(=O)(=O)N2CCC(C(=O)NC3CCCc4ccccc43)CC2)c(C)c1 (centres unmarked) [Compound 7-8],9.22,–
Cc1ccc(S(=O)(=O)N2CCC(C(=O)NCC3CCCCC3)CC2)c(C)c1 [Compound 7-9],–,CLint scaled [2]: 520 mL/min/kg; half-life [2]: 2.4 min
Cc1ccc(S(=O)(=O)N2CCC(C(=O)NC34CC5CC(CC(C5)C3)C4)CC2)c(C)c1 [Compound 7-11],8.07,CLint scaled [2]: 340 mL/min/kg; half-life [2]: 3.7 min
Cc1ccc(S(=O)(=O)N2CCC(C(=O)Nc3ccccc3)CC2)c(C)c1 [Compound 7-12],7.64,–
Cc1ccc(S(=O)(=O)N2CCC(C(=O)Nc3ccccc3F)CC2)c(C)c1 [Compound 7-13],7.70,–
Cc1ccc(S(=O)(=O)N2CCC(C(=O)Nc3ccccc3Cl)CC2)c(C)c1 [Compound 7-14],6.60,–
Cc1ccc(S(=O)(=O)N2CCC(C(=O)Nc3ccccc3Br)CC2)c(C)c1 [Compound 7-15],7.52,–
Cc1ccc(S(=O)(=O)N2CCC(C(=O)Nc3ccccc3C)CC2)c(C)c1 [Compound 7-16],6.19,–
Cc1ccc(S(=O)(=O)N2CCC(C(=O)Nc3ccccc3O)CC2)c(C)c1 [Compound 7-17],5.66,–
Cc1ccc(S(=O)(=O)N2CCC(C(=O)Nc3ccc(Oc4ccccc4)cc3)CC2)c(C)c1 [Compound 7-20],8.22,CLint scaled [2]: 120 mL/min/kg; half-life [2]: 11 min
Cc1ccc(S(=O)(=O)N2CCC(C(=O)Nc3ccc(OC(F)(F)F)cc3)CC2)c(C)c1 [Compound 7-23],8.28,CLint scaled [2]: 28 mL/min/kg; half-life [2]: 46 min
Cc1ccc(S(=O)(=O)N2CCC(C(=O)Nc3ccc([N+](=O)[O-])cc3)CC2)c(C)c1 [Compound 7-24],8.34,CLint scaled [2]: 7 mL/min/kg; half-life [2]: 180 min
Cc1ccc(S(=O)(=O)N2CCC(C(=O)Nc3ccc(C(C)C)cc3)CC2)c(C)c1 [Compound 7-28],8.55,–
Cc1ccc(S(=O)(=O)N2CCC(C(=O)Nc3ccc(C(F)(F)F)cc3)CC2)c(C)c1 [Compound 7-29],8.16,–
Cc1ccc(S(=O)(=O)N2CCC(C(=O)Nc3ccc(S(=O)(=O)C(F)(F)F)cc3)CC2)c(C)c1 [Compound 7-30],8.06,–
Cc1ccc(S(=O)(=O)N2CCC(C(=O)Nc3cccc(C(F)(F)F)c3)CC2)c(C)c1 [Compound 7-31],7.70,–
Cc1ccc(S(=O)(=O)N2CCC(C(=O)Nc3cc(Cl)cc(Cl)c3)CC2)c(C)c1 [Compound 7-35],7.92,–
Cc1ccc(S(=O)(=O)N2CCC(C(=O)Nc3ccc(Cl)c(C(F)(F)F)c3)CC2)c(C)c1 [Compound 7-36],7.37,–
Cc1ccc(S(=O)(=O)N2CCC(C(=O)Nc3ccc4ccccc4c3)CC2)c(C)c1 [Compound 7-38],8.80,CLint scaled [2]: 35 mL/min/kg; half-life [2]: 36 min
Cc1ccc(S(=O)(=O)N2CCC(C(=O)Nc3cnc4ccccc4c3)CC2)c(C)c1 [Compound 7-40],7.35,–
Cc1ccc(S(=O)(=O)N2CCC(C(=O)Nc3ccc4ncccc4c3)CC2)c(C)c1 [Compound 7-41],7.11,–
COC(=O)c1ccc2cc(NC(=O)C3CCN(S(=O)(=O)c4ccc(C)cc4C)CC3)ccc2c1 [Compound 7-43],8.64,–
Cc1ccc(S(=O)(=O)N2CCC(C(=O)NC34CC5CC(CC(C5)C3)C4)CC2)c(C)c1 [Compound 2535],–,pIC50 (Human sEH [3]): 8.07
Cc1ccc(S(=O)(=O)N2CCC(C(=O)NC3C[C@@H]3c3ccccc3)CC2)c(C)c1 (some centres unmarked) [Compound 2536],–,pIC50 (Human sEH [3]): 8.28
Cc1ccc(S(=O)(=O)N2CCC(C(=O)Nc3ccc4cc(C(=O)O)ccc4c3)CC2)c(C)c1 [Compound 2590],–,pIC50 (Human sEH [3]): 7.63

# — patent US20140336193A1, “POTENT NON-UREA INHIBITORS OF SOLUBLE EPOXIDE HYDROLASE” (priority 2012, published 2014)
